Measurements from patent US8946270B2, “Amido-pyridyl ether compounds and compositions and their use against parasites” (Merial Limited, priority 2011, dated 2015).
Like-named read-outs stand apart in the source and are kept apart here.

Tests used:
[1] = tested on: Haemonchus contortus larvae; assay: Activity against H. contortus, larval development L1 to L3 (LDA); settings: 5 ppm; 4 days
Description: Twenty L1 Haemonchus contortus larvae were added to wells of a microtitre plate containing a nutrient medium and the test compound in DMSO. The microtitre plate was then held at 27° C. where the L1 larvae were allowed to develop. […] Larvae exposed to DMSO and no test compound served as controls

[2] = tested on: Haematobia irritans; assay: whole plant or invertebrate; settings: 5 μg/cm^2; for mortality at 5 µg/cm2: Haematobia irritans, read-out: Contact SP Horn Fly PCT Mortality (%)
Description: A solution of the test compound was used to treat a filter paper contained within a Petri dish and the filter paper was allowed to evaporate to dryness. A small piece of absorbent cotton moistened with 10% sucrose and ten adult flies (Haematobia irritans or Stomoxys calcitrans) were added to each dish. Dishes were capped and held at room temperature. Assessments were performed at 4 and 24 hours after infestation in comparison with untreated controls.

[3] = tested on: microfilaria of Dirofilaria immitis; assay: Activity against D. immitis microfilaria (Mf); settings: 5 ppm; 5 days
Description: Four hundred to six hundred microfilaria of Dirofilaria immitis were added to wells of a microtitre plate containing RPMI media and the test compound in DMSO. The microtitre plate was then held at 37° C. in an environment containing 5% CO2. An assessment was conducted at 5 days to determine survival of the microfilaria. Microfilaria exposed to DMSO and no test compound served as controls.

[4] = tested on: Rhipicephalus sanguineus (Brown Dog Tick); assay: whole plant or invertebrate; settings: for mortality at 200 ppm: Rhipicephalus sanguineus, read-out: Contact SP Rhicicep PCT Mortality (%); for Contact SP Rhicicep PCT Mortality (%): 200 ppm
Description: A solution of the test compound was used to coat the inner wall of glass vials and to treat two filter papers. Once dried, one filter paper was placed in the cap of the vial and the other in the bottom of the vial. Each treated vial was infested with 10 adult Rhipicephalus sanguineus (Brown Dog Tick). […]

[5] = tested on: Ctenocephalides felis; assay: whole plant or invertebrate; settings: 72 hr; for mortality at 200 ppm: Ctenocephalides felis, read-out: Assay: Minilnge Organism: C. felis Test Parameter: PCT Mortal; for Assay: Minilnge Organism: C. felis Test Parameter: PCT Mortal: Dose: 200 ppm

For `CC(C)CNC(=O)c1ccc(CCOc2ccc(OC(F)(F)F)cc2)cn1` [Compound 13], the “LDA SP H. cont. PCT Mot M” value [1] was 95%, the mortality at 5 µg/cm2 ([2]; timepoint 4 hrs) was 60% and the mortality at 5 µg/cm2 ([2]; timepoint 24 hrs) was 70%.
`O=C(NCC1CCOCC1)c1ccc(CCOc2ccc(OC(F)(F)F)cc2)cn1` [Compound 14] was tested, and the “Mf sp D. immitis PCT Motili” value [3] was 88%, the “LDA SP H. cont. PCT Mot M” value [1] was 100% and the mortality at 5 µg/cm2 ([2]; timepoint 4 hrs) was 80%. It also gave a mortality at 5 µg/cm2 ([2]; timepoint 24 hrs) of 100%.
`O=C(NCC1CCOCC1)c1ccc(COc2ccc(OC(F)(F)F)cc2)cn1` [Compound 24] was tested, and the mortality at 200 ppm ([4]; timepoint 4 hrs) was 0%, the mortality at 200 ppm ([4]; timepoint 24 hrs) was 0% and the mortality at 200 ppm [5] was 0%. It also gave a mortality at 5 µg/cm2 ([2]; timepoint 4 hrs) of 50% and a mortality at 5 µg/cm2 ([2]; timepoint 24 hrs) of 70%.
`COC(CNC(=O)c1ccc(COc2cc(F)cc(Br)c2)cn1)OC` [Compound 107] gave a mortality at 200 ppm ([4]; timepoint 4 hrs) of 0%, a mortality at 200 ppm ([4]; timepoint 24 hrs) of 70% and a mortality at 200 ppm [5] of 90%. For the same compound, the mortality at 5 µg/cm2 ([2]; timepoint 4 hrs) was 0% and the mortality at 5 µg/cm2 ([2]; timepoint 24 hrs) was 0%.
For `CC(C)CNC(=O)c1ccc(OCc2ccc(OC(F)(F)F)cc2)cn1` [Compound 136], the “LDA SP H. cont. PCT Mot M” value [1] was 89.2655%.
In the case of `CCCNC(=O)c1ccc(COc2cccc(-c3cccc(F)c3)c2)cn1` [Compound 177], the “Contact SP Rhicicep PCT Mortality (%)” value ([4]; timepoint 4 hrs) is reported as 80%, the “Contact SP Rhicicep PCT Mortality (%)” value ([4]; timepoint 24 hrs) is reported as 90% and the “Assay: Minilnge Organism: C. felis Test Parameter: PCT Mortal” value (“Assay: Minilnge Organism” for short) [5] is reported as 40%.
For `C=C(C)CNC(=O)c1ccc(COc2cccc(-c3cccc(F)c3)c2)cn1` [Compound 179], the “Contact SP Rhicicep PCT Mortality (%)” value ([4]; timepoint 4 hrs) was 100%, the “Contact SP Rhicicep PCT Mortality (%)” value ([4]; timepoint 24 hrs) was 100% and the “Assay: Minilnge Organism” value [5] was 70%.
In the case of `CC(C)CNC(=O)c1ccc(COc2cccc(-c3ccccc3)c2)cn1` [Compound 198], the “Contact SP Rhicicep PCT Mortality (%)” value ([4]; timepoint 4 hrs) is reported as 100%, the “Contact SP Rhicicep PCT Mortality (%)” value ([4]; timepoint 24 hrs) is reported as 100% and the “Assay: Minilnge Organism” value [5] is reported as 90%.
For `CC(C)CNC(=O)c1ccc(CCOc2ccc(C(F)(F)F)cc2)cn1` [Compound 206], the mortality at 200 ppm ([4]; timepoint 4 hrs) was 100%, the mortality at 200 ppm ([4]; timepoint 24 hrs) was 100% and the “LDA SP H. cont. PCT Mot M” value [1] was 100%.
In the case of `O=C(NCC1CC1)c1ccc(CCOc2ccc(C(F)(F)F)cc2)cn1` [Compound 207], the “LDA SP H. cont. PCT Mot M” value [1] is reported as 100%, the “Contact SP Horn Fly PCT Mortality (%)” value ([2]; timepoint 4 hrs) is reported as 80% and the “Contact SP Horn Fly PCT Mortality (%)” value ([2]; timepoint 24 hrs) is reported as 80%.
For `CCC(C)CNC(=O)c1ccc(CCOc2ccc(C(F)(F)F)cc2)cn1` (stereo not shown) [Compound 219], the mortality at 200 ppm ([4]; timepoint 4 hrs) was 80%, the mortality at 200 ppm ([4]; timepoint 24 hrs) was 90% and the “LDA SP H. cont. PCT Mot M” value [1] was 90%.
In the case of `CC(C)CNC(=O)c1ccc(CCOc2ccc(Cl)c(OC(F)(F)F)c2)cn1` [Compound 223], the “Contact SP Rhicicep PCT Mortality (%)” value ([4]; timepoint 4 hrs) is reported as 0%, the “Contact SP Rhicicep PCT Mortality (%)” value ([4]; timepoint 24 hrs) is reported as 0% and the “LDA SP H. cont. PCT Mot M” value [1] is reported as 91%.
`CC(C)CNC(=O)c1ccc(CCOc2ccc(F)c(F)c2)cn1` [Compound 224] was tested, and the “LDA SP H. cont. PCT Mot M” value [1] was 98%.
Compound `O=C(NCC1CC1)c1ccc(CCOc2cccc(OC(F)(F)F)c2)cn1` [Compound 243] has a mortality at 200 ppm ([4]; timepoint 4 hrs) of 100%, a mortality at 200 ppm ([4]; timepoint 24 hrs) of 100% and a mortality at 200 ppm [5] of 80%.
